# What was measured:
# [1] = MLV, 48 hours in 0.9% NaCl solution; cited from earlier work
# L1210 cells = assay: In vitro growth inhibition of L1210 leukemic cells (96 hours, Coulter Counter); assay type: cell-based, murine; settings: footnote of Table 5; 5760 min
# Procedure: Four ml of cell suspension were added to culture tubes and the appropriate concentration of free PT or L-PT was added (from 0.01 micro g/ml to 10 micro g/ml final concentration). After 96 hours, the cell concentration of control and experimental cultures were calculated with a Coulter Counter (Coulter Electronics, Hialeah, FLA) and the percent inhibition calculated. The following preparations were tested: free PT, DMPG, DMPC:DMPG 7:3, DMPG-PT and DMPC:DMPG 7:3-PT.
# [2] = test system: liver metastases of M5076 reticulosarcoma; assay: Prophylaxis of liver metastases of mouse M5076 reticulosarcoma; assay type: in vivo, mouse (C57BL/6); settings: day 21, 10 mg/kg day -1, 10^4 cells iv
# Source text: NeodecanoatoRacemic-DACH. Animals were inoculated on day 0 with 10^4
# M5076 cells intravenously.
# Treated animals were sacrificed on day 21, the livers dissected,
# placed in Bouin's fixative, and the number of tumor colonies counted.
# L1210 mouse leukemia = assay: In vivo antitumor activity against L1210 mouse leukemia (L1210-BDF1 mouse model); set-up: species or system BDF1 mice
# Procedure: BDF1 mice were purchased from Charles River (Wilmington, MA). Groups of 6-8 mice weighing 18-22 gm were inoculated ip with 1×10^6 L1210 leukemia cells on day 0. L1210 cells were kept in DBA2 mice were weekly passages between the different experiments. All L-PT preparations were injected ip in volumes of 0.1 to 0.3 ml 24 hours after tumor inoculation. Two different schedules of administration were used: a single injection on day 1 or an injection on days 1, 5 and 9 (multiple). […] Clinical behavior and survival times were monitored until all animals had died. Results were expressed as % T/C (median survival time of treated mice/median survival time of control mice ×100) and number of long-term survivors. Mice living more than 30 days and more than 60 days were considered to be long-term survivors for the single and multiple injection schedule respectively. All L-PT preparations tested for antitumor activity were prepared under sterile conditions on the same day of the experiment.
# The antitumor activity against L-1210 murine leukemia of the different L-PT analogs was assessed in an L-1210-BDF, mouse model (tumor inoculation day 0, treatment day 1, ip) as described earlier herein.
# These liposome-encapsulated compounds were tested to determine their optimal dose and effectiveness as inhibitors of in vivo tumor growth as described in Example 12.
# [3] = test system: liver metastases of M5076 reticulosarcoma; assay: Treatment of established liver metastases of mouse M5076 reticulosarcoma; assay type: in vivo, mouse (C57BL/6); settings: for No. Liver Metastases, mean ± SD: day 30, 7.5 mg/kg days 8, 12, 16, 10^5 cells iv, 7.5 mg/kg
# Procedure: Animals were treated on days 8, 12, and 16 with
# Treated animals were sacrificed on day 30,
# Animals were treated on days 4, 8, and 12 with
# Treated animals were sacrificed on day 45,
compound,measurement,setting,value
"N.N.[Cl][Pt][Cl] [CDDP, Cis-platinum, reference compound]",stability,[1],75%
same,CDDP ID50,L1210 cells,0.1 micro g/ml
same,"No. Liver Metastases, mean ± SD",[2]; listed as Cis-platinum,256 ± 54
same,"No. Liver Metastases, mean ± SD",[2]; listed as cis-platinum,256 ±54
same,% T/C,"L1210 mouse leukemia; 7.5 mg/kg × 3 ip, days 1, 5 and 9",253%
same,% T/C,"L1210 mouse leukemia; 10 mg/kg ip day 1, Exp. 1",167%
same,% T/C,"L1210 mouse leukemia; 10 mg/kg ip day 1, Exp. 3",189%
same,Number of Survivors on Day 30,"L1210 mouse leukemia; 10 mg/kg ip day 1, Exp. 3",1/6
same,% T/C,"L1210 mouse leukemia; 10 mg/kg ip day 1, dissolved in saline (Table 8)",175%
same,"% T/C, mean","L1210 mouse leukemia; 10 mg/kg, single ip dose, means of three experiments",178%
same,Long-term survivors,"L1210 mouse leukemia; single ip dose, more than 30 days",one or two mice of six
same,"No. Liver Metastases, mean ± SD",[3]; listed as Cis-platinum,114 ± 38
same,"No. Liver Metastases, mean ± SD",[3]; listed as cis-platinum,114 ±38
same,animals with 175 or more liver metastases,"[3]; day 45, 7.5 mg/kg days 4, 8, 12",4/6
same,animals that died before day 45,"[3]; groups of 6, days 4, 8, and 12",Two
